Source: patent US20170197910A1, “SUBSTITUTED VINYL AND ALKYNYL CYANOCYCLOALKANOLS AND VINYL AND ALKYNYL CYANOHETEROCYCLOALKANOLS AS ACTIVE AGENTS AGAINST ABIOTIC PLANT STRESS” (BAYER CROPSCIENCE AKTIENGESELLSCHAFT, priority 2014, published 2017)

Experiments:
[1] = target: T1, phosphatase ABI1 via the co-regulator RCAR11/PYR1 (Arabidopsis thaliana, UniProt O49686+P49597); test: In vitro inhibition of phosphatase ABI1 via co-regulator RCAR11/PYR1, MUP dephosphorylation fluorescence assay; assay type: biochemical; conditions: concentration of 5 mM of the substance in DMSO and water; MUP substrate, 35° C., 20 minutes
T1 sequence (O49686 1-191): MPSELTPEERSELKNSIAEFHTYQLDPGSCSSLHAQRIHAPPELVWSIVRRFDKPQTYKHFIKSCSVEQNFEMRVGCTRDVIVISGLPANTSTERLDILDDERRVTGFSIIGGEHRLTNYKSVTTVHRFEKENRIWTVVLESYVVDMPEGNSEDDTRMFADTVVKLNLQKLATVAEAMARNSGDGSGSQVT
T1 sequence (P49597 1-434): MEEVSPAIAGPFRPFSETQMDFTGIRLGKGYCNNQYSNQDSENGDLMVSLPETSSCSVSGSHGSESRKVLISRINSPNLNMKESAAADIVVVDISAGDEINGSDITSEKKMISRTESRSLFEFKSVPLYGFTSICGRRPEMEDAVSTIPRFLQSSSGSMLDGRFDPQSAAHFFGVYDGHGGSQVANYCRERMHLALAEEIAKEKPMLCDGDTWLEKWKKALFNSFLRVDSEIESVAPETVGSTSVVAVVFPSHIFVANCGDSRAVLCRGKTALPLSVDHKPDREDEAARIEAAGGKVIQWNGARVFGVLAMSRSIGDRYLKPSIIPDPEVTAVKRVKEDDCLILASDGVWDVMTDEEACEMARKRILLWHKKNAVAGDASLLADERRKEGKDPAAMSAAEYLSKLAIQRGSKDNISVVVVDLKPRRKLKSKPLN
Source text: Effects of the phytohormone abscisic acid (ABA) on the behaviour of plants under abiotic stress and the mechanism of action of ABA are described in the literature (cf. Abrams et al., WO97/23441, Cutler, Park et al. Science, 2009, 324, 1068; Grill et al. Science, 2009, 324, 1064; Tanokura et al. Biophysics, 2011, 7, 123; Schroeder et al. Plant J. 2010, 61, 290). Therefore, it is possible with the aid of a suitable in vitro test system to derive a correlation between the action of ABA and the stress response of a plant under abiotic stress. In the event of water deficiency (drought stress), plants form the phytohormone abscisic acid (ABA). […]
The assay described hereinafter utilizes the inhibition of the phosphatase ABI1 via the co-regulator RCAR11/PYR1 aus Arabidopsis thaliana. For the determination of activity, the dephosphorylation of 4-methylumbelliferyl phosphate (MUP) was measured at 460 nm. […]
Enzyme buffer mix and substrate mix were made up 5 minutes prior to the addition and warmed to a temperature of 35° C. […] Finally, a relative fluorescence measurement was made at 35° C. with a BMG Labtech “POLARstar Optima” microplate reader using a 340/10 nm excitation filter and a 460 nm emission filter. […]

Triticum aestivum = test: In vivo drought stress test on crop plants, spray application, visual scoring vs stressed control (TRZAS); design: key: 0: no positive effect; 10: slight positive effect; 20: clear positive effect; 30: strong positive effect; conditions: dosage 250 g/ha, average score of 3 pots vs stressed control
Description: (§1) Seeds of monocotyledonous and dicotyledonous crop plants were sown in sandy loam in plastic pots, covered with soil or sand and cultivated in a greenhouse under good growth conditions. The trial plants were treated at the early leaf stage (BBCH10-BBCH13). To assure uniform water supply before commencement of stress, the potted plants were supplied with water by dam irrigation prior to substance application. The inventive compounds, formulated in the form of wettable powders (WP), were sprayed onto the green parts of the plants as an aqueous suspension at an equivalent water application rate of 600 I/ha with addition of 0.2% wetting agent (e.g. agrotin). Substance application was followed immediately by stress treatment of the plants. […] Once this juncture had been reached, the appearance of the plants treated with test substances was recorded in comparison to the stressed control plants by the following categories: • 0 no positive effect • 10 slight positive effect • 20 clear positive effect • 30 strong positive effect In order to rule out any influence on the effects observed by any fungicidal or insecticidal action of the test compounds, it was additionally ensured that the tests proceeded without fungal infection or insect infestation. In each test, for each crop and dosage, plants in 3 pots were treated and evaluated separately. […]

Zea mays = test: In vivo drought stress test on crop plants, spray application, visual scoring vs stressed control (ZEAMX); design: key: 0: no positive effect; 10: slight positive effect; 20: clear positive effect; 30: strong positive effect; conditions: dosage 250 g/ha, average score of 3 pots vs stressed control
Description: as §1

| Structure (SMILES) | ABI1 inhibition [1] | Effect (TRZAS) (Triticum aestivum) | Effect (ZEAMX) (Zea mays) |
| --- | --- | --- | --- |
| CC(C)C(O)(C#Cc1ccccc1C(=O)O)C1(C#N)CC1 (stereo not shown) [I.1-127, 2-[3-(1-Cyanocyclopropyl)-3-hydroxy-4-methylpent-1-yn-1-yl]benzoic acid] | +++ (90%>inhibition≧70%) | – | – |
| COC(=O)c1ccccc1C#CC(O)(C(C)C)C1(C#N)CC1 (stereo not shown) [I.1-130, Methyl 2-[3-(1-cyanocyclopropyl)-3-hydroxy-4-methylpent-1-yn-1-yl]benzoate] | – | 20 | 20 |
| CC1=CC(=O)CC(C)(C)[C@@]1(O)/C=C/C(C)=C\C(=O)O [abscisic acid, reference compound] | ++++ (inhibition≧90%) | – | – |
